Data taken from ChEMBL document CHEMBL1201862, “PubChem BioAssay data set” (2004).
Calls of active or inactive are those of the source.

Experiments:
[1] = Cytotoxicity screening for potential Inhibitors of Bacterial Capsule Biogenesis. [Related pubchem assays (depositor defined):AID488970]; assay type: functional
[2] = target: T1, Voltage-dependent T-type calcium channel subunit alpha-1H (Homo sapiens, UniProt O95180); assay type: functional
[3] = target: T1, Voltage-dependent T-type calcium channel subunit alpha-1H; test: Inhibitors of T-Type Calcium Channels. [Related pubchem assays (depositor defined):AID449739, AID463087, AID489005, AID493041, AID504579, AID504584, AID504619, AID504628]; assay type: functional
[4] = target: ORF 73 (Human herpesvirus 8, UniProt O40947); test: KSHV LANA DNA-binding disruption – biochemical, fluorescence polarization, cherry-picked samples, dose response (AID 504725); set-up: species or system Human gammaherpesvirus 8;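 further: fluorescence polarization of a labeled DNA duplex reporting LANA DNA binding; potency is for inhibitors that block LANA binding to the DNA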
[5] = tested on: HeLa; test: viability loss in HeLa cells – cell-based, 24 h, cherry-picked samples, cytotoxicity control, dose response (AID 504726); assay type: functional; settings: Homo sapiens;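 further: potency for cytotoxicity as loss of luminescence signal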
[6] = target: UDP-galactopyranose mutase (Mycobacterium tuberculosis, UniProt P9WIQ1); test: Inhibitors of Mycobacterium tuberculosis UDP-galactopyranose mutase (UGM) enzyme Measured in Biochemical System Using Plate Reader - 2105-02_Inhibitor_Dose_CherryPick_Activity. [Related pubchem assays (depositor defined):AID504439]
[7] = target: T2, Endoribonuclease toxin MazF (Escherichia coli K-12, UniProt P0AE70); test: activation of MazEF endoribonuclease cleavage – biochemical, fluorescence, single-stranded RNA substrate, uHTS hits, dose response (AID 588481); assay type: functional
T2 sequence (P0AE70 whole entry): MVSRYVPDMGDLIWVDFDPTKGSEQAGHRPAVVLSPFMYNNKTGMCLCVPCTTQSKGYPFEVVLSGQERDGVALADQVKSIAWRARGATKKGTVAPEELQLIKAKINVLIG

[8] = target: T2, Endoribonuclease toxin MazF; test: substrate-only fluorescence increase artefacts – biochemical, single-stranded RNase substrate, counter-screen for MazEF activator project, dose response (AID 588502); assay type: functional
[9] = target: T3, Nucleotide-binding oligomerization domain-containing protein 1 (Homo sapiens, UniProt Q9Y239); test: blockers of NOD1 pathway activity – revised, SAR follow-up (AID 2333); assay type: functional
T3 sequence (Q9Y239 whole entry): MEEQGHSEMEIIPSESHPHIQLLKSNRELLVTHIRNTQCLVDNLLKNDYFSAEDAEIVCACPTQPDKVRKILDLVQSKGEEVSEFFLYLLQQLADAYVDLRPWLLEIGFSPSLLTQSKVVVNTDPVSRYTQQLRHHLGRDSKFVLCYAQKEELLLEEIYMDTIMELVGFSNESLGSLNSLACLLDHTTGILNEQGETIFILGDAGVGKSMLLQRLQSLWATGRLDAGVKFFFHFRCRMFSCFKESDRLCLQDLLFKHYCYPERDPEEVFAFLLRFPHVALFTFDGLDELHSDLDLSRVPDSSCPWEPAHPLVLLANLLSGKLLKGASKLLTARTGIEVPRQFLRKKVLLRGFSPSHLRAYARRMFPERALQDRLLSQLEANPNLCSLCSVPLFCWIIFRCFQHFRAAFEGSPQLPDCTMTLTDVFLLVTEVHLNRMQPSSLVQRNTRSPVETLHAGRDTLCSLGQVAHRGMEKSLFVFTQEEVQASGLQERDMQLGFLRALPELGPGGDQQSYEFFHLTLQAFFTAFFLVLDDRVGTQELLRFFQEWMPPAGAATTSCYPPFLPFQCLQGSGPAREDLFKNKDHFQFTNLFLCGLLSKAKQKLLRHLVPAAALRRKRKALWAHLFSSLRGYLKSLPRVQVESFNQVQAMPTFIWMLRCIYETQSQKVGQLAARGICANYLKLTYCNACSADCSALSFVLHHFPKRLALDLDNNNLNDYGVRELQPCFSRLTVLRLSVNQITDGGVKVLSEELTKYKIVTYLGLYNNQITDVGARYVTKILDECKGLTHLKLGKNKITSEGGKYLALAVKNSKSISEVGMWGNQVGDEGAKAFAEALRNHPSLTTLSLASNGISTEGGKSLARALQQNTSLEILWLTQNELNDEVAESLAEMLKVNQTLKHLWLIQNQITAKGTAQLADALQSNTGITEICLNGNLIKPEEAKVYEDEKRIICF

[10] = target: Nucleotide-binding oligomerization domain-containing protein 2 (Homo sapiens, UniProt Q9HC29); test: PubChem AID 2334; assay type: functional
[11] = target: T4, Interleukin-8 (Homo sapiens, UniProt P10145); test: SAR analysis of GM-Tri-DAP induced IL-8 secretion in MCF-7/NOD1 cells - Set 2. [Related pubchem assays (depositor defined):AID1575, AID1578, AID2333]; assay type: functional, cell-based
T4 sequence (P10145 whole entry): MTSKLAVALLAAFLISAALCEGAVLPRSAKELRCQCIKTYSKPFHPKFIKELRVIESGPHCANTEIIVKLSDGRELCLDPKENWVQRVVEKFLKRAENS

[12] = target: Tumor necrosis factor (Homo sapiens, UniProt P01375); test: analog potency on TNFa NF-kB signaling – cell-based, revised, SAR follow-up (AID 2337); assay type: functional
[13] = target: T4, Interleukin-8; test: SAR analysis of Tumor necrosis factor alpha (TNF-alpha) induced IL-8 secretion in MCF-7/NOD1 cells - Set 2. [Related pubchem assays (depositor defined):AID1575, AID2250, AID2260]; assay type: functional, cell-based
[14] = target: T3, Nucleotide-binding oligomerization domain-containing protein 1; test: SAR analysis of NF-kappaB dependent luciferase using DAP as an inducer - Set 2. [Related pubchem assays (depositor defined):AID1566, AID1575, AID1578, AID1579, AID1849, AID1852, AID2264]; assay type: functional
[15] = tested on: HEK293; test: cells; settings: Homo sapiens;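 further: cells exposed to compound for 14 hours overnight before viability readout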
[16] = target: Scavenger receptor class B member 1 (Mus musculus, UniProt Q61009); test: mouse SR-BI DiI-HDL uptake blockers – ldlA[mSR-BI] cells, fluorescence, cherry pick, dose response (AID 493194); assay type: functional, cell-based;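 further: cellular uptake of fluorescent DiI-labeled HDL measured as cell fluorescence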
[17] = target: T5, Estrogen receptor beta (Homo sapiens, UniProt Q92731);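 further: recombinant ER-beta bound to coactivator SRC1 peptide in presence of estradiol agonist; inhibitors block coactivator peptide binding and lower the FRET signal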
[18] = HEK-293T viability loss after treatment – luminescence, T-cell screen hits, cytotoxicity control for TCR NF-kB inhibitor project, dose response (AID 489026); assay type: functional, cell-based;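 further: cells exposed to compound about 14 hours before the viability readout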
[19] = target: T6, Estrogen receptor (Homo sapiens, UniProt P03372);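 further: potency for inhibiting coactivator peptide recruitment to the receptor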
T6 sequence (P03372 whole entry): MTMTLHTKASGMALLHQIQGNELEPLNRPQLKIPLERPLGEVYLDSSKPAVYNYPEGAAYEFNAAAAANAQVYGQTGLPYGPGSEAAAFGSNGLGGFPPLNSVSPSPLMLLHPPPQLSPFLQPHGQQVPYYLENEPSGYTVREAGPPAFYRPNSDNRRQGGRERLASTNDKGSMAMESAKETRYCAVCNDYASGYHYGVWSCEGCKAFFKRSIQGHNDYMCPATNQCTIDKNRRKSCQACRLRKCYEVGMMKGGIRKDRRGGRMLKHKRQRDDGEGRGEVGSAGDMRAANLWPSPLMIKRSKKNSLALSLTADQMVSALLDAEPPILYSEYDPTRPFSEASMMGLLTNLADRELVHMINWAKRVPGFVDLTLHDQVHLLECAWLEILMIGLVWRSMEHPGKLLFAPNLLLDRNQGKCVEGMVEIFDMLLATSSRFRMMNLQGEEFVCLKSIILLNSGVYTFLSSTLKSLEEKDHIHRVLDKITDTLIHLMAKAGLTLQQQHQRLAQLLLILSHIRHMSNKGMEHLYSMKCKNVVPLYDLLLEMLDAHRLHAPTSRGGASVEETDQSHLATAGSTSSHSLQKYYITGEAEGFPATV

[20] = target: T5, Estrogen receptor beta; test: blockers of SRC-3 recruitment to ERβ – biochemical, ELISA, streptavidin-HRP readout, orthogonal assay, confirmation (AID 1060)
[21] = target: Eukaryotic translation initiation factor 4H (Homo sapiens, UniProt Q15056); test: eIF4H binding inhibition – biochemical, uHTS, fluorescence polarization, translation initiation inhibitor project, primary screen (AID 2012)
[22] = target: Polyadenylate-binding protein 1 (Homo sapiens, UniProt P11940); test: blockers of PABP interaction with poly(A) – biochemical, fluorescence polarization, […] (AID 2014)
[23] = target: Cyclin-dependent kinase 5/CDK5 activator 1 (Homo sapiens, UniProt Q00535); test: blockade of human CDK5 activity – biochemical, cherry-picked samples, set 2, dose response (AID 504545)
[24] = target: Nonstructural protein 1 (Influenza A virus, UniProt Q194T2); assay type: functional, Influenza A virus (A/California/07/2009(H1N1))
[25] = target: Cystic fibrosis transmembrane conductance regulator/Golgi-associated PDZ and coiled-coil motif-containing protein (Homo sapiens, UniProt P13569+Q9HD26); test: potency against CAL PDZ-peptide interaction – biochemical, fluorescence polarization, Cerulean-tagged CAL PDZ, cherry-picks, dose response (AID 504773)
[26] = target: Keap1/Nrf2 (Homo sapiens, UniProt Q14145); test: disruptors of Keap1 binding to Nrf2 peptide – biochemical, fluorescence polarization, cherry-picked samples, dose response (AID 588683)
[27] = target: Signal transducer and activator of transcription 3 (Homo sapiens, UniProt P40763); test: STAT3 activation with BCL3 mRNA and toxicity – cell-based, […], BCL3 qPCR, cytotoxicity, late-stage follow-up, panel member STAT3 Activation (AID 2049)
[28] = target: T7, Kappa-type opioid receptor (Homo sapiens, UniProt P41145); test: SAR analysis of small molecule antagonists of the kappa opioid receptor via a luminescent beta-arrestin assay - Set 6. [Related pubchem assays (depositor defined):AID1777, AID1778, AID1785, AID1786, AID1966, AID2133, AID2136, AID2285]; assay type: functional
[29] = target: Mu-type opioid receptor (Homo sapiens, UniProt P35372); test: SAR Analysis of Antagonists of the MOR Receptor using an Image-Based Assay - Set 3. [Related pubchem assays (depositor defined):AID1777, AID1785, AID1786, AID1966, AID2133, AID2136, AID2284, AID2285, AID2420]; assay type: functional
[30] = target: T7, Kappa-type opioid receptor; test: SAR analysis of small molecule antagonists of the kappa opioid receptor via a luminescent beta-arrestin assay - Set 4. [Related pubchem assays (depositor defined):AID1777, AID1778, AID1785, AID1786, AID1966, AID2133, AID2136, AID2285]; assay type: functional
[31] = target: T7, Kappa-type opioid receptor; test: SAR analysis of Antagonists of the Kappa Opioid Receptor (KOR) using an Image-Based Assay - Set 4. [Related pubchem assays (depositor defined):AID1777, AID1785]; assay type: functional
[32] = target: Delta-type opioid receptor (Homo sapiens, UniProt P41143); test: SAR Analysis of Antagonists of the DOR Receptor using an Image-Based Assay - Set 3. [Related pubchem assays (depositor defined):AID1777, AID1785]; assay type: functional;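 further: U2OS cells expressing DOR1 and beta-arrestin GFP stimulated with 100 nM SNC80; imaging of GFP-tagged beta-arrestin moving into spots after receptor activation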

T7 sequence (P41145 whole entry): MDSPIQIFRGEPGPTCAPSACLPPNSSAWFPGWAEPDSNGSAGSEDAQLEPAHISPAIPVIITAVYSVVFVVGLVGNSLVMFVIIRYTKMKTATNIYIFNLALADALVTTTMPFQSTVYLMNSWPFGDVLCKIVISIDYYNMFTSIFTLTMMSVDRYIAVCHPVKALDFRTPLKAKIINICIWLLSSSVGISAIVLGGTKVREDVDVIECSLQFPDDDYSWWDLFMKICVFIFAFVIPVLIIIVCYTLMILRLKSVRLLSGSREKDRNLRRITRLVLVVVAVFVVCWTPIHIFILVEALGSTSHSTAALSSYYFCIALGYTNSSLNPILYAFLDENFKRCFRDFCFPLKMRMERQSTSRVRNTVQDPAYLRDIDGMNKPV
Sequence of UDP-galactopyranose mutase (P9WIQ1 whole entry): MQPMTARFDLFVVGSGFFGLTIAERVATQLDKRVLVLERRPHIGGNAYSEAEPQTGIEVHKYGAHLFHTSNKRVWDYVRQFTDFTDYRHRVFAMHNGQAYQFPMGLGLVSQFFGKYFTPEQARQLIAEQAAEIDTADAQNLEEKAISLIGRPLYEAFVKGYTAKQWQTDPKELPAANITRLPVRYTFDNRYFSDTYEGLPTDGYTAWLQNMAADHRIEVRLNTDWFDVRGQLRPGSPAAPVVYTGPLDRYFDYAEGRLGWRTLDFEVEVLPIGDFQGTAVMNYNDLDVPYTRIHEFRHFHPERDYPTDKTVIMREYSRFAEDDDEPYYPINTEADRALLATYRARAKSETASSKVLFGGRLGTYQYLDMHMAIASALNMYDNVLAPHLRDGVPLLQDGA
T5 sequence (Q92731 whole entry): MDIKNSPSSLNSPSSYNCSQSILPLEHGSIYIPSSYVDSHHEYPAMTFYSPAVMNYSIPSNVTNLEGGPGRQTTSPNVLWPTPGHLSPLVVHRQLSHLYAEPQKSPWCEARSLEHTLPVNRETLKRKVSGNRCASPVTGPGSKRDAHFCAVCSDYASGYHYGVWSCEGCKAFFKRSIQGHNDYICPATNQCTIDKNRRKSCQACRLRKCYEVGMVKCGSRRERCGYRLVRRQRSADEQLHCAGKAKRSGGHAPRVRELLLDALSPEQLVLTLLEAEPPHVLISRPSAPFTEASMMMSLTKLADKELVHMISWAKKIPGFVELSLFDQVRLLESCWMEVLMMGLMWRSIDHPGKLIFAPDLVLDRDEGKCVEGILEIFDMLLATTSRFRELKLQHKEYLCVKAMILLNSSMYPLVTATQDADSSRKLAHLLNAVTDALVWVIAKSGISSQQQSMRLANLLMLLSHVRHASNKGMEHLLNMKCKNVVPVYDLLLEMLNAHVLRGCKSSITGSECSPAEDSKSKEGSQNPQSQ
T1 sequence (O95180 whole entry): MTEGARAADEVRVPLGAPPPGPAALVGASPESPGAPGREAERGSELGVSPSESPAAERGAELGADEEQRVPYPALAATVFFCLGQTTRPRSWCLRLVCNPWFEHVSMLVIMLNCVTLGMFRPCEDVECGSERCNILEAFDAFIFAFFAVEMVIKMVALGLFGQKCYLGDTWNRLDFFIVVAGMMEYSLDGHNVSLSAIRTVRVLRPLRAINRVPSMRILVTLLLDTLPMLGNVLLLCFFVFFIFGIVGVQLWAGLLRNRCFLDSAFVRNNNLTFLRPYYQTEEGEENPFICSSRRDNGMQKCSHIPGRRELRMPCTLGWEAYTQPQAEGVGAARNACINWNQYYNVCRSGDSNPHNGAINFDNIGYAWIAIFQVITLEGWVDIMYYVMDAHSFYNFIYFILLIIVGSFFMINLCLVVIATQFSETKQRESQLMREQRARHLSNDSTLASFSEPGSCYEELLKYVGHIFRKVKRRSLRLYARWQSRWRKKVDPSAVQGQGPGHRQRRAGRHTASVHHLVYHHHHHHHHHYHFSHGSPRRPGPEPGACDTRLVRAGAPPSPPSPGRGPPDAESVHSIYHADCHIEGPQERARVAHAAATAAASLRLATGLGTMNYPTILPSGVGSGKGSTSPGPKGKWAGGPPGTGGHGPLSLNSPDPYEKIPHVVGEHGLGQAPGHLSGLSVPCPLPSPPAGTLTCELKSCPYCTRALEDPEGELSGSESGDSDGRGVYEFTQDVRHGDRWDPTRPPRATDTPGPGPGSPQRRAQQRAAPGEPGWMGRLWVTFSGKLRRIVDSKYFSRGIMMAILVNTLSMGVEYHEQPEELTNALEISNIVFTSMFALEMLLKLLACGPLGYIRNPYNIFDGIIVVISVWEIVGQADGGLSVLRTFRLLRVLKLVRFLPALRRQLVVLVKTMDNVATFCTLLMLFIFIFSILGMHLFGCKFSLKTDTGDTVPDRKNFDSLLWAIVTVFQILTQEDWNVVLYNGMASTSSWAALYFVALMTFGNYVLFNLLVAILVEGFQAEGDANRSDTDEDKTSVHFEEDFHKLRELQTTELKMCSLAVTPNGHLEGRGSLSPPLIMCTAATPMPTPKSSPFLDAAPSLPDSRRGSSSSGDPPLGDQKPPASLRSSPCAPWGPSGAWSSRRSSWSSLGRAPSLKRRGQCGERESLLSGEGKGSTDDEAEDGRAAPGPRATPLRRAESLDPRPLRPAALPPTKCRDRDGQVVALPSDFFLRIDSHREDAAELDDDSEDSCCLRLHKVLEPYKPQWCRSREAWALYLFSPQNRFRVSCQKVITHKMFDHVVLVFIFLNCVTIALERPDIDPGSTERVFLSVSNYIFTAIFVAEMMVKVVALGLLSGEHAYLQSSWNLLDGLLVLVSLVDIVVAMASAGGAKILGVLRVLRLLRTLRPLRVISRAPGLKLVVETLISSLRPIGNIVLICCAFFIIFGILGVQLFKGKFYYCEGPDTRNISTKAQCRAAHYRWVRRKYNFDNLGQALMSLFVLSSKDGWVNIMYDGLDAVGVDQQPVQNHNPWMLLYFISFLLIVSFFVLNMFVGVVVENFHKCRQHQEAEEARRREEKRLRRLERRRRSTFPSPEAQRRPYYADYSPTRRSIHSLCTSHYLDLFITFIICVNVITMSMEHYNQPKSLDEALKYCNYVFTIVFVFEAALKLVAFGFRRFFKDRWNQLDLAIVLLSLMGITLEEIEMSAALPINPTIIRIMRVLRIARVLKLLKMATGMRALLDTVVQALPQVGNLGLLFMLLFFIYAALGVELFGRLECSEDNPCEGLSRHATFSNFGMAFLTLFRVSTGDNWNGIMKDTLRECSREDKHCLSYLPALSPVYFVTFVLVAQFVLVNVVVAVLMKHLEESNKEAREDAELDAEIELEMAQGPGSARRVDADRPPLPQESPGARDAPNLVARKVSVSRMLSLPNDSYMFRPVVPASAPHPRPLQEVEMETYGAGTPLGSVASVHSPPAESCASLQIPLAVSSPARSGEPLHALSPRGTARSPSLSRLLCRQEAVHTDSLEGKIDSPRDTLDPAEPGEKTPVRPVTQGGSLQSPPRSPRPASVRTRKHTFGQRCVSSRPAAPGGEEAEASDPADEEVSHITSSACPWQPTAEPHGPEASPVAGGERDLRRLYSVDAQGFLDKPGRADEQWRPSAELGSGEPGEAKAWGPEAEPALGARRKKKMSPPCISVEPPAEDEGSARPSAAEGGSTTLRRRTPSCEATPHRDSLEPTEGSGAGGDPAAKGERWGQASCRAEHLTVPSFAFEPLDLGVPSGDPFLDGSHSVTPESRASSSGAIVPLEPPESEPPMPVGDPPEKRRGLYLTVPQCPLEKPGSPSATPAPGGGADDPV
Sequence of ORF 73 (O40947 whole entry): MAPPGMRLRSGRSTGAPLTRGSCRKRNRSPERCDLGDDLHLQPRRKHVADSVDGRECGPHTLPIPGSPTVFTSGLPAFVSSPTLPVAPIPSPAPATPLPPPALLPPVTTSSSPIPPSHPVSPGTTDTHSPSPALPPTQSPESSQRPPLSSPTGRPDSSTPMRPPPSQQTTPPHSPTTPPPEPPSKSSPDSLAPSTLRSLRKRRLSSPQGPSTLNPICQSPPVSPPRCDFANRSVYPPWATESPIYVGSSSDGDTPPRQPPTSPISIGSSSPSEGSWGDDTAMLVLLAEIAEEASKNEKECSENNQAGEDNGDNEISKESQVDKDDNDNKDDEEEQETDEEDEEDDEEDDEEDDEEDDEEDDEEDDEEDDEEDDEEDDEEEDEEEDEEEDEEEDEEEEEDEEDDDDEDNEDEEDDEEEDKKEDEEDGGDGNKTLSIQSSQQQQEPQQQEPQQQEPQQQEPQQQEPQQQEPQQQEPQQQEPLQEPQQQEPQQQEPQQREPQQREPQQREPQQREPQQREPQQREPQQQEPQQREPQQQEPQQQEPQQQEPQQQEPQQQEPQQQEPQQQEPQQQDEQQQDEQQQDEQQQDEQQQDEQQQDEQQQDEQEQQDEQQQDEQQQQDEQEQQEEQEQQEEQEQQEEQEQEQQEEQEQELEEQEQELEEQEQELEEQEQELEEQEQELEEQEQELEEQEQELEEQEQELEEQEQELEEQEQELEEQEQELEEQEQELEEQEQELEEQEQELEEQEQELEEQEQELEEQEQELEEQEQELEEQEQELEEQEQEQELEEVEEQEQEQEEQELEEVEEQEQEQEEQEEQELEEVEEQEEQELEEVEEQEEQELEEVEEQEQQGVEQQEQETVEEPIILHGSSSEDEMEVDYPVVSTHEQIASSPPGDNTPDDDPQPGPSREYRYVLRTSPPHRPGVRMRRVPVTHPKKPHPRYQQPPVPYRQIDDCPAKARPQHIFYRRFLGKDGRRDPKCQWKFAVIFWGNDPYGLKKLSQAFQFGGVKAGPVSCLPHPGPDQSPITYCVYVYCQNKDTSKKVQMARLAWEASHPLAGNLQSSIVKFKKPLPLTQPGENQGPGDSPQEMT
Sequence of Tumor necrosis factor (P01375 whole entry): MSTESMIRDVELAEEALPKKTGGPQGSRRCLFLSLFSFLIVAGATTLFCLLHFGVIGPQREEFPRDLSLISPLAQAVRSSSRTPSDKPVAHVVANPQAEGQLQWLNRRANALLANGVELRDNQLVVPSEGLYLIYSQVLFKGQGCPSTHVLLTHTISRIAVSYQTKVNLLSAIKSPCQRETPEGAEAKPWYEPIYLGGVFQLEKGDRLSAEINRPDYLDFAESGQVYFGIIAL

O=C(NCc1cc([N+](=O)[O-])ccc1O)c1cccnc1Sc1ccccc1
CC50 [1]: > 100 µM (active)

Nc1c(C(=O)Nc2ccccc2F)sc2nc(Cc3ccccc3)cc(C(F)(F)F)c12
EC50 [2]: 2.71 µM (active) | EC50 [3]: 1.9 µM (active) | AC50 [4]: 16.1 µM (active) | AC50 [5]: 95.9 µM (active) | AC50 [6]: 98.6 µM (active) | EC50 [7]: 17.4 µM (active) | EC50 [8]: > 99 µM (inactive)

Nc1nc2ccccc2n1CCOc1ccc(Cl)cc1
IC50 [9]: 12.7 µM (active) | IC50 [10]: > 20 µM (inactive) | IC50 [11]: 8.6 µM (active) | IC50 [12]: > 20 µM (inactive) | IC50 [13]: > 25 µM (inactive) | IC50 [14]: > 25 µM (inactive) | IC50 [15]: > 20 µM (inactive)

Cc1c(C(=O)OCc2ccccc2)[nH]c2c1C(=O)CC(c1ccco1)C2 (stereo not given)
AC50 [16]: 0.258 µM (active) | IC50 [17]: 15.1 µM (active) | IC50 [18]: > 80 µM (inactive) | IC50 [19]: 23 µM (active) | IC50 [20]: 9.51 µM (not active)

CCOc1ccc2nc(SCC(=O)NC(=O)NCc3ccco3)[nH]c2c1
IC50 [21]: 13.3 µM (active) | IC50 [22]: 62.3 µM (active)

COc1ccc2nc3c(cc2c1)c(NC(=O)C1CCCO1)nn3CC(C)C (stereo not given)
AC50 [23]: 31.2 µM (active)

CCNc1ccc2noc3c2c1C(=O)c1ccccc1-3
IC50 [24]: 62 µM (active) | AC50 [4]: 1.03 µM (active) | AC50 [5]: 42.9 µM (active) | AC50 [6]: 0.609 µM (active) | AC50 [25]: 4.08 µM (active) | AC50 [26]: 0.866 µM (active)

COc1cc(NC(=O)c2cc(C)on2)c(OC)cc1Cl
EC50 [27]: 6.98 µM (active)

CC(C)N(CCNC(=O)c1ccc(CNS(=O)(=O)c2ccc(-c3ccccc3)cc2)cc1)Cc1ccccc1
IC50 [28]: > 20 µM (inactive) | IC50 [29]: > 32 µM (inactive) | IC50 [30]: 1.33 µM (active) | IC50 [31]: 0.432 µM (active) | IC50 [32]: > 32 µM (inactive)
